Common to all, as to type: cell-based
Assay [1] has as its system pHrodo Red S. aureus BioParticles phagocytosed by human neutrophils. Put plainly: Infection-on-a-chip phagocytosis (pHrodo fluorescence). The note with it: at 2 h. How it is done: For neutrophils used in microfluidic devices, de-identified fresh blood samples (10 mL) were purchased from Research Blood Components where blood samples were obtained from healthy volunteers aged ≥18 years who were not receiving immunosuppressant agents. Additionally, venous blood samples from healthy volunteers were collected by phlebotomy, after receipt of written informed consent, and under approval by the MGH Institutional Review Board (protocol 2008-P-002123). Neutrophils were isolated from whole blood using EasySep direct human neutrophil isolation kit (StemCell Technologies) as per the manufacturer’s instructions.
Use of this microfluidic device for monitoring migration of neutrophils and control of the S. aureus growth in cell culture medium has been outlined in detail previously. Briefly, microfluidic devices were primed with S. aureus (SH1000-GFP, 1 × 10^6/mL) in culture media (Iscove’s Modified Dulbecco’s Medium + 10% Fetal Bovine Serum) by loading the outer chamber and applying vacuum to draw bacteria into the inner chambers. The outer chamber was then washed by pushing 200 µL of media through the device using a pipette, and loaded with neutrophils (5.5 × 10^6/mL, stained with Hoechst 33342 dye, 10 min at 32 μM). Additionally, neutrophil phagocytosis was monitored by using pHrodo Red S. aureus BioParticles® (Life Technologies) in replace of live S. aureus cells. BioParticles were used at a final concentration of 1 × 10^7/mL, which gave 50–100 BioParticles within the microchamber. The concentration of cells were determined by hemocytometer.
Kinetics of neutrophil migration, S. aureus growth and phagocytosis was determined using imaging with an automated Nikon Eclipse TiE inverted wide-field microscope with stage control and perfect focus system run through the Nikon NIS element v4. The biochamber was maintained temperature at 37 °C and CO2 at 5% for the 8 h of the experiment, where images were captured every 5 min for each field of view (FOV), with at least 4 FOV captured per experimental condition. For each experimental condition at least 12 chambers were tracked for neutrophil migration using the FIJI[64] plugin Trackmate[65]. The percentage of neutrophils recruited into the chamber was determined relative to the total number of neutrophils in each FOV divided by the number of chambers visible. Data were averaged and the results from at least 3 donors plotted. The pHrodo or S. aureus GFP fluorescence within the microchamber was calculated by thresholding the image and measuring the area in FIJI[36]. Data were plotted using GraphPad Prism 8 software (GraphPad Software, San Diego, CA, USA).

In assay [2] the target is T1, human FPR1 (Homo sapiens, UniProt P21462).
T1 construct: expressed in transfected cells
T1 sequence (P21462 1-350): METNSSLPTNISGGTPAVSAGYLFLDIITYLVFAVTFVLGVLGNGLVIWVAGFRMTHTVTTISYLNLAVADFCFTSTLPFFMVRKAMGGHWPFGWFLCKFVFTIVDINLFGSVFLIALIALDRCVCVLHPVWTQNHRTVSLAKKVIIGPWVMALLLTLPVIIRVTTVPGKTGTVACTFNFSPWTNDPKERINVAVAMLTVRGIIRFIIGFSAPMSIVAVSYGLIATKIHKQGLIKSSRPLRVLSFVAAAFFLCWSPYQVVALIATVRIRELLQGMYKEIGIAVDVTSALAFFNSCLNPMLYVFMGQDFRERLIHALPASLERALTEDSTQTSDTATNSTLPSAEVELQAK
Nature of the assay: ERK1/2 phosphorylation, CHO cells expressing FPR1. The note with it: 5 min, mean ± SEM; for EC50: read-out: ERK1/2 phosphorylation FPR1 pEC50 (converted); for Emax: normalized to 10% FBS. How it is done:
(§1) FlpIn Chinese hamster ovary (CHO) cells stably expressing either the human FPR1 or FPR2. Both of the cell lines were cultured in Dulbecco’s modified eagle medium (DMEM), which contained 10% foetal bovine serum (FBS, JRH Biosciences) and 500 µg/mL of the antibiotic hygromycin-B (Invitrogen Inc). Cells were grown at 37 °C in a humidified incubator containing 5% CO2 as described previously. Cells were seeded into 96-well tissue culture plates (4 × 10^4 cells/well) and after 6–8 h, cells were washed with PBS twice (50 µL/well in each washing step) and then starved by incubating in 90 µL/well of serum-free DMEM overnight at 37 °C in 5% CO2 before assaying for ERK1/2 phosphorylation (pERK1/2) and intracellular Ca^2+ mobilization.
(§2) A time course was used to assess peak pERK1/2 phosphorylation for all the compounds. The positive control of 10% FBS, and serum-free DMEM as vehicle control. […] All the compounds were tested with time points taken at 0, 5, 7, 10, 20, 30.
(§3) For both the time course and concentration-response curves, the stimulation was terminated by the rapid removal of serum-free DMEM with agonists and adding 100 μL/well of SureFire lysis buffer. The detection step was performed according to the manufacturer’s instructions (AlphaScreen detection kit, PerkinElmer Life and Analytical Science)[49]. Data were normalized to the vehicle (serum-free DMEM) and the response elicited by 10% FBS, with nonlinear regression performed using GraphPad Prism 9.0.
(§4) Non-linear regression was performed using GraphPrism 9.0. […] Significance was determined using Student’s unpaired t test, with two-tailed p values of <0.05 considered statistically significant.

Assay [3] deals with T2, human FPR2 (Homo sapiens, UniProt P25090).
T2 construct: expressed in transfected cells
T2 sequence (P25090 1-351): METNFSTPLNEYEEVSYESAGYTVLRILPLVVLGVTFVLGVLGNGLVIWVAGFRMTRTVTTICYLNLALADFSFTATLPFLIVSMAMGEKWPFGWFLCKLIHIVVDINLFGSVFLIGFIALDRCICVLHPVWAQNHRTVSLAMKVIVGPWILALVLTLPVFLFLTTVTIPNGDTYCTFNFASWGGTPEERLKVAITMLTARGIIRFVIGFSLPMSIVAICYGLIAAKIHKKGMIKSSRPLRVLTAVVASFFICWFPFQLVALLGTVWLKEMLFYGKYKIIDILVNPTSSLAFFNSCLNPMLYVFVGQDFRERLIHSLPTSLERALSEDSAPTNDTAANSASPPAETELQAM
Nature of the assay: Calcium mobilization, CHO cells expressing FPR2. The settings on record: mean ± SEM; for EC50: read-out: [Ca2+]i mobilization FPR2 pEC50 (converted); for Emax: normalized to ATP 100 µM, read-out: [Ca2+]i mobilization FPR2 Emax. On the procedure: as §1
(§5) For the calcium mobilization assay, the cells were plated and starved in the same manner as the pERK1/2 assay, before washing the cells once in HEPES buffered saline (HBS) solution [150 mM NaCl, 1.3 mM CaCl2, 5 mM KCl, 1 mM MgSO4.7H2O, 1.5 mM NaHCO3, 10 mM HEPES, and 10 mM D-glucose; pH 7.4]. Then the cells were incubated at 37 °C under 5% CO2 condition with HBS containing 0.5% (w/v) bovine serum albumin (BSA), 4 mM probenecid and 1 µM Fluo-8-AM (Abcam) for 1 h. FlexStation three plate reader (Molecular Devices) were used to determine Ca^2+ mobilization. The peak change in fluorescence signal was normalized to the vehicle (HBS solution) and the cellular response mediated by the positive control, adenosine triphosphate (ATP, 100 µM), and fitted with nonlinear regression curve in GraphPad Prism 9.0.
as §4

Assay [4] addresses T2, human FPR2. Put plainly: ERK1/2 phosphorylation, CHO cells expressing FPR2. The settings on record: 5 min, mean ± SEM; for EC50: read-out: ERK1/2 phosphorylation FPR2 pEC50 (converted); for Emax: normalized to 10% FBS. How it is done: as §1, §2, §3, §4
Assay [5] has as its target T1, human FPR1. Nature of the assay: Calcium mobilization, CHO cells expressing FPR1. The settings on record: mean ± SEM; for EC50: read-out: [Ca2+]i mobilization FPR1 pEC50 (converted); for Emax: normalized to ATP 100 µM, read-out: [Ca2+]i mobilization FPR1 Emax. On the procedure: as §1, §5, §4
(In general: A change in cytosolic calcium serves as a functional read-out for many receptors and channels.)

Non-standard residues stand in square brackets, D forms with d. Residues, ends and D or L forms follow the SMILES beside them. *: point of attachment. Cha = N[C@@H](CC1CCCCC1)C(=O)O; For = O=C*

As a reminder, the Emax is the size of the effect at its maximum, as opposed to the concentration needed.

In the case of Van-C(fMLF-Leu-Tz) [C18], the “area of pHrodo fluorescence per neutrophil recruited into the microchamber” value in assay [1] (donor 2) was determined as 4.4; in assay [1] (donor column 1), 7.9; in assay [1] (donor column 3), 2.1; in assay [1] (donor column 4) it was 1.8.
Regarding `CSCC[C@H](NC=O)C(=O)N[C@@H](CC1CCCCC1)C(=O)N[C@@H](Cc1ccccc1)C(=O)NCC(N)=O` [FP11, fM-Cha-FG-NH2] (For-M[Cha]FG-NH2), the EC50 was 0.00219 µM at human FPR1 [2], 1.32 µM on human FPR2 [3], 1.86 µM at human FPR2 [4] and 0.00955 µM on human FPR1 [5]. Also, the maximum response (Emax) at human FPR1 [2] was determined as 90 ± 8%; at human FPR2 [3] it was 43 ± 13%; at human FPR2 [4], 81 ± 9%; on human FPR1 [5], 27 ± 4%.
In the case of `CN[C@H](CC(C)C)C(=O)N[C@H]1C(=O)N[C@@H](CC(N)=O)C(=O)N[C@H]2C(=O)N[C@H]3C(=O)N[C@H](C(=O)N[C@H](C(=O)NCCCn4cc(C[C@H](NC(=O)CNC(=O)[C@H](Cc5ccccc5)NC(=O)[C@H](CC(C)C)NC(=O)[C@H](CCSC)NC=O)C(N)=O)nn4)c4cc(O)cc(O)c4-c4cc3ccc4O)[C@H](O)c3ccc(c(Cl)c3)Oc3cc2cc(c3O[C@@H]2O[C@H](CO)[C@@H](O)[C@H](O)[C@H]2O[C@H]2C[C@](C)(N)[C@H](O)[C@H](C)O2)Oc2ccc(cc2Cl)[C@H]1O` [C1, Van-C(fMLFG-Tz)], the maximum response (Emax) was determined as 77 ± 8% at human FPR1 [2], 45 ± 10% on human FPR2 [3], 99 ± 9% on human FPR2 [4] and 34 ± 8% at human FPR1 [5].
As to fML-Tyr-G-NH2 [FP12], the “area of pHrodo fluorescence per neutrophil recruited into the microchamber” value in assay [1] (donor 2) is on record as 4.1; in assay [1] (donor column 1) it was 4.7; in assay [1] (donor column 3), 1.5; in assay [1] (donor column 4), 2.8.
`CSCC[C@H](NC=O)C(=O)N[C@@H](CC(C)C)C(=O)N[C@@H](Cc1ccccc1)C(=O)O` [fMLF, N-formyl-Met-Leu-Phe, reference compound]: the Emax was found to be 18 ± 4% at human FPR2 [3] and 99 ± 27% on human FPR2 [4].
On to Van-C(fML-Tyr-G-Tz) [C19], for which the “area of pHrodo fluorescence per neutrophil recruited into the microchamber” value in assay [1] (donor 2) amounted to 3.5; in assay [1] (donor column 1), 9.2; in assay [1] (donor column 3), 7.8; in assay [1] (donor column 4) it was 2.6.
As to `CSCC[C@H](NC=O)C(=O)N[C@@H](CC(C)C)C(=O)N[C@@H](Cc1ccccc1)C(=O)NCC(N)=O` [FP1, fMLFG-NH2] (For-MLFG-NH2), the EC50 is 0.00251 µM at human FPR1 [2], 1.35 µM on human FPR2 [3], 2.88 µM on human FPR2 [4] and 0.00676 µM on human FPR1 [5]. In addition, the Emax at human FPR1 [2] worked out at 86 ± 8%; on human FPR2 [3] it was 34 ± 7%; at human FPR2 [4], 82 ± 7%; on human FPR1 [5], 27 ± 4%.
Take fMLF-Leu-NH2 [FP19]: the “area of pHrodo fluorescence per neutrophil recruited into the microchamber” value in assay [1] (donor 2) is 7.8; in assay [1] (donor column 1), 6.5; in assay [1] (donor column 3), 1.5; in assay [1] (donor column 4), 2.3.
In the case of `CN[C@H](CC(C)C)C(=O)N[C@H]1C(=O)N[C@@H](CC(N)=O)C(=O)N[C@H]2C(=O)N[C@H]3C(=O)N[C@H](C(=O)N[C@H](C(=O)NCCCn4cc(C[C@H](NC(=O)CNC(=O)[C@H](Cc5ccccc5)NC(=O)[C@H](CC5CCCCC5)NC(=O)[C@H](CCSC)NC=O)C(N)=O)nn4)c4cc(O)cc(O)c4-c4cc3ccc4O)[C@H](O)c3ccc(c(Cl)c3)Oc3cc2cc(c3O[C@@H]2O[C@H](CO)[C@@H](O)[C@H](O)[C@H]2O[C@H]2C[C@](C)(N)[C@H](O)[C@H](C)O2)Oc2ccc(cc2Cl)[C@H]1O` [C11, Van-C(fM-Cha-FG-Tz)], the Emax came to 83 ± 3% at human FPR1 [2], 27 ± 3% at human FPR2 [3], 84 ± 4% at human FPR2 [4] and 24 ± 3% on human FPR1 [5].

The values above are taken from publication PMC8546149, “Antibiotic-chemoattractants enhance neutrophil clearance of Staphylococcus aureus” (Nature Communications, 2021).
